Results from ChEMBL document CHEMBL1201862, “PubChem BioAssay data set” (2004).
Activity calls are given as the source filed them.

Experiments:
HEK293 [1] = assay: cells; conditions: Homo sapiens
HEK293 [2] = assay: cells; conditions: Homo sapiens; remark: listed apart in the source
[3] = Counterscreen for IDE inhibitors: Luminescence-based cell-based high throughput dose response assay to identify compounds that are cytotoxic to HEK cells. [Related pubchem assays: 434962 (Primary screen (IDE inhibitors in singlicate)), 449730 (Counterscreen (Cytotoxicity in triplicate)), 435028 (Confirmation (IDE inhibitors in triplicate)) …; assay type: functional; conditions: HEK293
[4] = blockers of HIV-1 envelope-mediated cell-cell fusion – cherry-pick, dose response (AID 652057); assay type: functional, cell-based
[5] = target: Polyadenylate-binding protein 1 (Homo sapiens, UniProt P11940); assay: blockers of PABP interaction with poly(A) – biochemical, fluorescence polarization, […] (AID 2014)
Sequence of Polyadenylate-binding protein 1 (P11940 whole entry): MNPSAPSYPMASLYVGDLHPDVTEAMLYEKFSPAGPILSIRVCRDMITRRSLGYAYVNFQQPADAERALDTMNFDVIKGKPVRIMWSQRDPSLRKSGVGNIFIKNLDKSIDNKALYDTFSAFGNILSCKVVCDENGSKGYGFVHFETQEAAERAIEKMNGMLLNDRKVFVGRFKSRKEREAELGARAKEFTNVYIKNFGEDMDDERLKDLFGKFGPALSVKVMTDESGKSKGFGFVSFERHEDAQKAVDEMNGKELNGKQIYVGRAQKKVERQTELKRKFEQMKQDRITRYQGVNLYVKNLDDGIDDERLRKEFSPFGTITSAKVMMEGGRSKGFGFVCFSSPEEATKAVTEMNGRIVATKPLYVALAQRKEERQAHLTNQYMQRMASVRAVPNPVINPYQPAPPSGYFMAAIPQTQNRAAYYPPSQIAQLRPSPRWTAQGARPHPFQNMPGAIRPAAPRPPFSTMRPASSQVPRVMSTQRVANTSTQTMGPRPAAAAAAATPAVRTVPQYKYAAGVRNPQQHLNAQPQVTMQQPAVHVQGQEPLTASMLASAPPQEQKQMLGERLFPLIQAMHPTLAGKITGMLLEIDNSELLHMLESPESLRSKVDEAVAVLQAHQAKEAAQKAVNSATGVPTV

[6] = target: Eukaryotic translation initiation factor 4H (Homo sapiens, UniProt Q15056); assay: eIF4H binding inhibition – biochemical, uHTS, fluorescence polarization, translation initiation inhibitor project, primary screen (AID 2012)
[7] = target: T1, Dual specificity protein phosphatase 3 (Homo sapiens, UniProt P51452); assay: Dose Response Confirmation of compounds that inhibit VHR1 in Fluorescent Assay. [Related pubchem assays (depositor defined):AID1661, AID1878]; assay type: functional
T1 sequence (P51452 whole entry): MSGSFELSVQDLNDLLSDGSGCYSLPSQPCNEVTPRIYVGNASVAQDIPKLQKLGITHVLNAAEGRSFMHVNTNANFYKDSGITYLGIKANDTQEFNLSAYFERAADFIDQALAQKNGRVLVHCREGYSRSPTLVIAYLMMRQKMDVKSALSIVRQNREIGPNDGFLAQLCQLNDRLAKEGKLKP

[8] = target: T2, Heat shock 70 kDa protein 1A (Homo sapiens, UniProt P0DMV8); assay: small molecules displacing fluorescent ligand from Hsp70 – biochemical, fluorescence polarization, primary screen (AID 583)
T2 sequence (P0DMV8 whole entry): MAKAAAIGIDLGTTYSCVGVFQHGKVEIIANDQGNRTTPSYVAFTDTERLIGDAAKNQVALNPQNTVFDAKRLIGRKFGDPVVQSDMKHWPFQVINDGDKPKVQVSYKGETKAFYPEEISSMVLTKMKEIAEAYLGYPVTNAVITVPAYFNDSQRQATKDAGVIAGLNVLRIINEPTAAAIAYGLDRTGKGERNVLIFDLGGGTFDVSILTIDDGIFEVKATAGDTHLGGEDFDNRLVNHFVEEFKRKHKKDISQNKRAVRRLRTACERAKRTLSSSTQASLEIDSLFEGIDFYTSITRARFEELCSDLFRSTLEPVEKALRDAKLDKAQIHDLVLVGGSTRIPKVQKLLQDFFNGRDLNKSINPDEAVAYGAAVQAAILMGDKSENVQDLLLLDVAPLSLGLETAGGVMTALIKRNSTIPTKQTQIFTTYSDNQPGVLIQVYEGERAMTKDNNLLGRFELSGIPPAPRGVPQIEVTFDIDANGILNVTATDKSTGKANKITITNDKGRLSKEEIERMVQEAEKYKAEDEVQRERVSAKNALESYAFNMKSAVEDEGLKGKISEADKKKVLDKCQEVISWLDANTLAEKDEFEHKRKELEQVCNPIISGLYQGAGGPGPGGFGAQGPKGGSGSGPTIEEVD

[9] = target: T3, Tyrosine-protein phosphatase non-receptor type 7 (Homo sapiens, UniProt P35236); assay: Dose Response confirmation of compounds that inhibit HePTP. [Related pubchem assays (depositor defined):AID1059, AID1661, AID2085]; assay type: functional
T3 sequence (P35236 whole entry): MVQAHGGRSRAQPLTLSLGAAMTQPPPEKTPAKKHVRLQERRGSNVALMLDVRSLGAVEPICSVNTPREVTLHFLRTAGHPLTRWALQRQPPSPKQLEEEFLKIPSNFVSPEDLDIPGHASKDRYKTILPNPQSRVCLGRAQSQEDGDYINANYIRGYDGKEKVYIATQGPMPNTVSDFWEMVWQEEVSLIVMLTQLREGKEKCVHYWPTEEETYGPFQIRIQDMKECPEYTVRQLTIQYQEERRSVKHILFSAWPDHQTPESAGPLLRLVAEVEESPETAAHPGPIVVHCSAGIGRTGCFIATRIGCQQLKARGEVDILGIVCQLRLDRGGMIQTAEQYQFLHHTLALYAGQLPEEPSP

[10] = target: T1, Dual specificity protein phosphatase 3; assay: SAR VHR1 Fluorescent Assay for In Vitro dose response studies Set 3. [Related pubchem assays (depositor defined):AID1654, AID1661, AID1878]; assay type: functional
[11] = target: T2, Heat shock 70 kDa protein 1A; assay: small-molecule inhibition of Hsp70 – biochemical, TR-FRET (AID 786)
Insulin-degrading enzyme = target: T4, Insulin-degrading enzyme (Homo sapiens, UniProt P14735); assay: Dose Response: Fluorescence polarization-based cell-based high throughput dose response assay for inhibitors of insulin-degrading enzyme (IDE). [Related pubchem assays: 434962 (Primary screen (IDE inhibitors in singlicate)), 449730 (Counterscreen (Cytotoxicity in triplicate)), 435028 (Confirmation (IDE inhibitors in triplicate)), 434984 (Summary …; assay type: functional
T4 sequence (P14735 whole entry): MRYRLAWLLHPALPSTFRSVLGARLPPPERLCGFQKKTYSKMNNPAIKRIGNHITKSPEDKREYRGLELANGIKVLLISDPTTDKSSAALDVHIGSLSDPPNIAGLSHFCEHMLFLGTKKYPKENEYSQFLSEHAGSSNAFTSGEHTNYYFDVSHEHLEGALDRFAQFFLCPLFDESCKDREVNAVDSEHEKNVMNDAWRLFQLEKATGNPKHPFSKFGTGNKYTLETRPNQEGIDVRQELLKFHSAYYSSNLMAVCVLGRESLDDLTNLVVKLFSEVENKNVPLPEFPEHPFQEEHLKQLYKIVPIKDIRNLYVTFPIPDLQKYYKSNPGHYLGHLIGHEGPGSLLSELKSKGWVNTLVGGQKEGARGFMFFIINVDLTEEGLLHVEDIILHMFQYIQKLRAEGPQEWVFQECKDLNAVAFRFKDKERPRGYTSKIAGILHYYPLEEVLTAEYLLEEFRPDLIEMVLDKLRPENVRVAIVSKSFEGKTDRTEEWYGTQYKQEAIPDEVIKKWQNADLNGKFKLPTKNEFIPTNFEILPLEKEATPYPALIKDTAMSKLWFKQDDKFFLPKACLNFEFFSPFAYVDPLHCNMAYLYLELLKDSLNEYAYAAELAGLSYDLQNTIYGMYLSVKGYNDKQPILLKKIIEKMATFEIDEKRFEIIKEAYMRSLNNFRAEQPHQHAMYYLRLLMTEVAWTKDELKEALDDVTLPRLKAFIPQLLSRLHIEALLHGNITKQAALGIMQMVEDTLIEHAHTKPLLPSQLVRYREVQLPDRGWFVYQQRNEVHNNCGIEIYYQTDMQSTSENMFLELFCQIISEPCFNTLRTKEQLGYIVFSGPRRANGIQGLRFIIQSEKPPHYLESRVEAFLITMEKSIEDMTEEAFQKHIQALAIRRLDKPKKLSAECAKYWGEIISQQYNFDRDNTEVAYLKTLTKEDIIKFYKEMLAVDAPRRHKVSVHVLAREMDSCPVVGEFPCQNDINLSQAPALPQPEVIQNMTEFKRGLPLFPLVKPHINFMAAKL

[12] = target: Protein-tyrosine kinase 2-beta (Homo sapiens, UniProt Q14289);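 also: potency of inhibitors of PYK2 kinase phosphorylation of poly-GT substrate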
Sequence of Protein-tyrosine kinase 2-beta (Q14289 whole entry, the tested form may be a part): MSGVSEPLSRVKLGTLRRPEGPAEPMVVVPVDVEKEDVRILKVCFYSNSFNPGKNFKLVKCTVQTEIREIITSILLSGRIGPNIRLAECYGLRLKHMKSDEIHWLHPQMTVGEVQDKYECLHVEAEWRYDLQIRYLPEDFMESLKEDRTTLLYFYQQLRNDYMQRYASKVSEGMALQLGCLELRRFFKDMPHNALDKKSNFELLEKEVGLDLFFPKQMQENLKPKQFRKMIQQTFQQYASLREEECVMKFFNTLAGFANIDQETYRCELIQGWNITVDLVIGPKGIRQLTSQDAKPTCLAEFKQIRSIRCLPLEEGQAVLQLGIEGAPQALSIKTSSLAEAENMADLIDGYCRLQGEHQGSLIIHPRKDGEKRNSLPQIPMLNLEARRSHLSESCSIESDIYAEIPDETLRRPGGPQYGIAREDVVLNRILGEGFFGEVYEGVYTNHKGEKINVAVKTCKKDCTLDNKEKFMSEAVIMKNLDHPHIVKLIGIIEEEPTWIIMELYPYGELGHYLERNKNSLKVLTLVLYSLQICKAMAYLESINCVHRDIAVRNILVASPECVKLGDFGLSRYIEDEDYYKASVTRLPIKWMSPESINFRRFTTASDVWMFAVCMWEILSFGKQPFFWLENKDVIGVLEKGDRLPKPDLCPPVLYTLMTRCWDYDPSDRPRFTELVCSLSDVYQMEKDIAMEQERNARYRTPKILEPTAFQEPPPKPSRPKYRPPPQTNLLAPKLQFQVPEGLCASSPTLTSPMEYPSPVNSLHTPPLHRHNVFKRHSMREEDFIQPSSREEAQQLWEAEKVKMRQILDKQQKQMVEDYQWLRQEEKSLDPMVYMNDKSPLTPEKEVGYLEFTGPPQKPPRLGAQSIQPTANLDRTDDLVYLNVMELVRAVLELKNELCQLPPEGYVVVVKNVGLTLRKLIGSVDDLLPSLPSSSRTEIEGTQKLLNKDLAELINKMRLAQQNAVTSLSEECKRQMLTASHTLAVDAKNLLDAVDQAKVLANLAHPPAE

[13] = viability loss in CEM21 cells – cell-based, CellTiter-Glo luminescence, cherry-picked, cytotoxicity control for viral fusion inhibitor project, dose response (AID 652042); assay type: functional;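 also: potency for signal decrease meaning cytotoxicity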
fMet-Leu-Phe receptor = target: T5, fMet-Leu-Phe receptor (Homo sapiens, UniProt P21462); assay: formyl peptide receptor binders – dose response (AID 519); assay type: functional
T5 sequence (P21462 whole entry): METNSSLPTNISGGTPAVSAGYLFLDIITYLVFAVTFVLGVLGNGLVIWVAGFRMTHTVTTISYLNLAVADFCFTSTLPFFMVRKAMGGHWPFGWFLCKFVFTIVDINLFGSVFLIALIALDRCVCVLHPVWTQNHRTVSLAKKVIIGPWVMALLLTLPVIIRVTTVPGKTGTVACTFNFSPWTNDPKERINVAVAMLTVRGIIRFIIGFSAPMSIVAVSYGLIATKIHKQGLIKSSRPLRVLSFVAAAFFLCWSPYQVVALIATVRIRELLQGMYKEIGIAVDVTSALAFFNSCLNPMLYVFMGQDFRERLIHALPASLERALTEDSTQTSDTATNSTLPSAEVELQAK

Vero [14] = assay: cells; assay type: functional, cell-based; conditions: Chlorocebus sabaeus
[15] = viability of uninfected HEp-2 cells – cell-based, HTS, cytotoxicity control for RSV inhibitor project, dose response (AID 2410); assay type: functional; conditions: human respiratory syncytial virus
Vero [16] = assay: cells; assay type: functional; conditions: Chlorocebus sabaeus
Escherichia coli = assay: microbe, parasite or virus in culture
Protein RecA = target: T6, Protein RecA (Mycobacterium tuberculosis, UniProt P9WHJ3); assay: Fluorescence Cell-Free Homogeneous Dose Retest to Identify Inhibitors of RecA-Intein Splicing Activity. [Related pubchem assays (depositor defined):AID2097, AID2223, AID489010, AID492950]; assay type: functional
T6 sequence (P9WHJ3 whole entry): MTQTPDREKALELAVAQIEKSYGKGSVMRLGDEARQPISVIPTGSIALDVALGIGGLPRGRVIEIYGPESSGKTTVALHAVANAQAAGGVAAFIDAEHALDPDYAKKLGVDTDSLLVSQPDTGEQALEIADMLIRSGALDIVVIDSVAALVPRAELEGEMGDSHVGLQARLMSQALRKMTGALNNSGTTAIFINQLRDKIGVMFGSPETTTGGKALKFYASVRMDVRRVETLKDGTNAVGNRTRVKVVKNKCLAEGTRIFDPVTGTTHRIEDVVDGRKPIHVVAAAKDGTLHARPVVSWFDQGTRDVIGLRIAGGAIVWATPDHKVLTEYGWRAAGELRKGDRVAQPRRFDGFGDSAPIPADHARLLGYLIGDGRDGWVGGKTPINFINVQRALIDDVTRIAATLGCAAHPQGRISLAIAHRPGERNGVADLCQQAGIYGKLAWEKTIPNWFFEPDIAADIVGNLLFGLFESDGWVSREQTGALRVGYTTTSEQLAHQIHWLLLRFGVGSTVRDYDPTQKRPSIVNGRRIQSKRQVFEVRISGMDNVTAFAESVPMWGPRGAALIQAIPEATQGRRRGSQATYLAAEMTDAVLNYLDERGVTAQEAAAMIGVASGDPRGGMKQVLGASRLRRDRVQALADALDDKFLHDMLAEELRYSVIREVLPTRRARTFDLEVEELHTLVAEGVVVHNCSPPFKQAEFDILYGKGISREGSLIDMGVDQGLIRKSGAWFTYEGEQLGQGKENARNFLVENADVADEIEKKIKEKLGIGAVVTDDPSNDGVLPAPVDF

Keap1/Nrf2 = Keap1/Nrf2 (Homo sapiens, UniProt Q14145); assay: disruptors of Keap1 binding to Nrf2 peptide – biochemical, fluorescence polarization, cherry-picked samples, dose response (AID 588683)
Sequence of Keap1/Nrf2 (Q16236 whole entry): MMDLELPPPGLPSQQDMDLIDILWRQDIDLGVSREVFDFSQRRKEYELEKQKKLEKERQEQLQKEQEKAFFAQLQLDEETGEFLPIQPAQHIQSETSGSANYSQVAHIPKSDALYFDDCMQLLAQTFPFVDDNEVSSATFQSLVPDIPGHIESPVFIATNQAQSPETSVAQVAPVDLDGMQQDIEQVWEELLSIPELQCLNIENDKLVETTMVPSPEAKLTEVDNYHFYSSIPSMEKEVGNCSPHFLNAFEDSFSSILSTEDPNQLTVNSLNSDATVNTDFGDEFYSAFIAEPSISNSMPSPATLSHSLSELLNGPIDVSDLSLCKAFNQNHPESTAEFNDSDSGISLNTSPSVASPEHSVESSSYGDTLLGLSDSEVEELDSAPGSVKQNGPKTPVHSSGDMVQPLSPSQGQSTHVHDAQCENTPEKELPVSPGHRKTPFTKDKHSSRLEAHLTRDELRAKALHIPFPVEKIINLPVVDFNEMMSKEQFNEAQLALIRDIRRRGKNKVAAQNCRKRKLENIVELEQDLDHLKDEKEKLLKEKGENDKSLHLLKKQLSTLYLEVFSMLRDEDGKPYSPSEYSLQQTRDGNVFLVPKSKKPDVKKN
Sequence of Keap1/Nrf2 (Q14145 whole entry): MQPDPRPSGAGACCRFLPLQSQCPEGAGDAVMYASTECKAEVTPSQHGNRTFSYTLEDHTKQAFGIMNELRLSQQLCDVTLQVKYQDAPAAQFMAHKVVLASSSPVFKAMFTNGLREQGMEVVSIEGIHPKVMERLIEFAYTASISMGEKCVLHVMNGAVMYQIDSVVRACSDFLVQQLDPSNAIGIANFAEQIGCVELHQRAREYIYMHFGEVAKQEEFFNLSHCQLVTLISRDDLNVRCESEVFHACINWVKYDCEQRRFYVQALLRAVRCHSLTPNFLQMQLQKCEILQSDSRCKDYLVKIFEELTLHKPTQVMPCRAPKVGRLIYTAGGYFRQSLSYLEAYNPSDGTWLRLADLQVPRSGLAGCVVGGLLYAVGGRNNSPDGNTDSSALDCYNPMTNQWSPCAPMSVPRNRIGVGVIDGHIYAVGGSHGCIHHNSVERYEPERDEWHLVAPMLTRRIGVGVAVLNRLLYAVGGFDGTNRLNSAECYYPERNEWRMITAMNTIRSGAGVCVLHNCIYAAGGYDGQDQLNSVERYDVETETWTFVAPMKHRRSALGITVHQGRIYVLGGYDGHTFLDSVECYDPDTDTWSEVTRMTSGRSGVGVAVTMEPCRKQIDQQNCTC

[17] = target: T7, Replicative DNA helicase DnaB (Mycobacterium tuberculosis, UniProt P9WMR3); assay: DnaB intein splicing inhibitors, dose response, biochemical, cell-free fluorescence (AID 449749); assay type: functional
T7 sequence (P9WMR3 whole entry): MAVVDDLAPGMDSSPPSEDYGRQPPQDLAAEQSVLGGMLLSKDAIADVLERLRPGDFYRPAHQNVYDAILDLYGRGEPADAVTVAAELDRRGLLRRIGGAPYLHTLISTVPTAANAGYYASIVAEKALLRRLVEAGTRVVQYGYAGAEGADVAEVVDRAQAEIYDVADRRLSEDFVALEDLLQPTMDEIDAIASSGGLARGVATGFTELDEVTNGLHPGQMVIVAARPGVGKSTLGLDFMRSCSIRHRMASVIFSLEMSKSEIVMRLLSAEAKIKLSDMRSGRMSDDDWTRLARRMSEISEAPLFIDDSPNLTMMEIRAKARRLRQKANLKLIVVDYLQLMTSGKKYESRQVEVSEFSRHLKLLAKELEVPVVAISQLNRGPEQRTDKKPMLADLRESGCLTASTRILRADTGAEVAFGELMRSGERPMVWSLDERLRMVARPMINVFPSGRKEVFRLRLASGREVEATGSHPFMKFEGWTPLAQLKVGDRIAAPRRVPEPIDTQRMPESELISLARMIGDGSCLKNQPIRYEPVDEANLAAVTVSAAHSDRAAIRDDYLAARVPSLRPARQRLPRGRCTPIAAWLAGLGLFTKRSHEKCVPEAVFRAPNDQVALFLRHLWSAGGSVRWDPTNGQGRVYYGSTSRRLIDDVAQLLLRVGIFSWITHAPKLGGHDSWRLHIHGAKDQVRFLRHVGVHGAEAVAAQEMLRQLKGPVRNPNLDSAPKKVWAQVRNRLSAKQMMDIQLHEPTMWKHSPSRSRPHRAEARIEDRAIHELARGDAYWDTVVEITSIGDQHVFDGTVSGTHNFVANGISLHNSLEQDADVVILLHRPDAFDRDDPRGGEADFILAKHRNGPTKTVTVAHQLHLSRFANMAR

Vero [18] = assay: viability of Vero cells under compound – cytotoxicity control for flavivirus capping enzyme inhibitors (AID 588742); assay type: functional; conditions: Chlorocebus sabaeus
Genome polyprotein = Genome polyprotein (dengue virus type 2, UniProt P29990); assay: flavivirus cap methylation enzyme inhibition – biochemical, confirmation dose response, primary screen (AID 588689); assay type: functional
Sequence of Genome polyprotein (P29990 2492-3391 limits assumed): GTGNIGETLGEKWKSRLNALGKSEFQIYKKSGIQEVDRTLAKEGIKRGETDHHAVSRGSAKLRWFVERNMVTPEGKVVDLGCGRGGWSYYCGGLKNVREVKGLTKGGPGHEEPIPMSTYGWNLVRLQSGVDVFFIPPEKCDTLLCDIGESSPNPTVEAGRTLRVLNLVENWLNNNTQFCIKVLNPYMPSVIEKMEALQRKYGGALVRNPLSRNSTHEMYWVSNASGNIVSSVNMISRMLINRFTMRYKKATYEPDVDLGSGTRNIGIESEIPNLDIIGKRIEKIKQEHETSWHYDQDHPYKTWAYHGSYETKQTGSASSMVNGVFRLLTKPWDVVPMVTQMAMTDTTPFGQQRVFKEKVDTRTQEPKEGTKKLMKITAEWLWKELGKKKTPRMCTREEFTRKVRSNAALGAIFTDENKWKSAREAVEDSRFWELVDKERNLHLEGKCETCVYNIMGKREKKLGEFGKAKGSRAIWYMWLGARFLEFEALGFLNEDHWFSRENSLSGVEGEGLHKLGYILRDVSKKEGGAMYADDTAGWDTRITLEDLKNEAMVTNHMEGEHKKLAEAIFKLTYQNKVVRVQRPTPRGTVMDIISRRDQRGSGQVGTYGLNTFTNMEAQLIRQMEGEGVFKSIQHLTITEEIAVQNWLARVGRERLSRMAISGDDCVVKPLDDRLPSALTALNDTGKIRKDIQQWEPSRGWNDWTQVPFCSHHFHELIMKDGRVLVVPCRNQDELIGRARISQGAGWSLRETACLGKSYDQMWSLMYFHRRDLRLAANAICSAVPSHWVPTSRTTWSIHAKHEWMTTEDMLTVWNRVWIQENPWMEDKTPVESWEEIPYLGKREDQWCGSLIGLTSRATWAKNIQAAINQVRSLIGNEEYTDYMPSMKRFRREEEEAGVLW

For Cc1nn2c(nc(N3CCCCC3)c3ccccc32)c1C=O, the EC50 (HEK293 [1]) was > 59.7 µM (inactive) and the EC50 (HEK293 [2]) was > 59.7 µM (inactive).
In the case of COc1ccc(-c2nnc(Nc3nc4c(OC)cccc4s3)o2)cc1, the IC50 [3] is reported as 17.1 µM (not active), the AC50 [4] is reported as 5.28 µM (active) and the IC50 [5] is reported as > 100 µM (inactive). For the same compound, the IC50 [6] was 12.5 µM (active), the IC50 [7] was 1.78 µM (active) and the IC50 [8] was > 100 µM (not active). For the same compound, the IC50 [9] was 6.08 µM (active), the IC50 [10] was 3.61 µM (active) and the IC50 [11] was > 100 µM (not active). For the same compound, the IC50 (Insulin-degrading enzyme) was > 55.9 µM (not active), the IC50 [12] was 9.06 µM (active) and the AC50 [13] was 52.2 µM (active). The Ki (fMet-Leu-Phe receptor) was > 66.7 µM (inactive).
With CC1Cc2ccccc2N1S(=O)(=O)c1cccc(C(=O)N2CCN(c3ncccn3)CC2)c1 (stereo not given) the IC50 (Vero [14]) was 2.15 µM (active), the IC50 (cells) was 1.01 µM (active) and the CC50 [15] was 3.41 µM (active). The CC50 (Vero [16]) was > 25 µM (active).
With CCCC(C(=O)NNC(=O)c1cc(C)oc1C)c1ccccc1 (stereo not given) the AC50 (Escherichia coli) was 31.7 µM (active).
In the case of O=C1/C(=N\S(=O)(=O)c2ccc([N+](=O)[O-])cc2)C(Cl)=C(O)c2ccccc21, the EC50 (Protein RecA) is reported as 1.26 µM (active), the AC50 (Keap1/Nrf2) is reported as > 52 µM (inactive) and the AC50 [17] is reported as 6.49 µM (active). The CC50 (Vero [18]) was 34.2 µM (active) and the IC50 (Genome polyprotein) was 76.9 µM (active).
